According to ChEMBL document CHEMBL1134625 (J Med Chem, 2001):

Legend:
Histamine H2 receptor = Histamine H2 receptor (Homo sapiens, UniProt P25021)
[1] = target: Voltage-gated L-type calcium channel (Homo sapiens, UniProt Q13936+Q13698+Q01668+O60840); assay type: protein assay
[2] = target: 5-hydroxytryptamine receptor 2A (Homo sapiens, UniProt P28223)
D(1A) dopamine receptor = D(1A) dopamine receptor (Homo sapiens, UniProt P21728)
Vasopressin V1a receptor = Vasopressin V1a receptor (Homo sapiens, UniProt P37288)
[3] = target: Sodium-dependent noradrenaline transporter (Homo sapiens, UniProt P23975)
[4] = target: T1, 5-hydroxytryptamine receptor 2C (Homo sapiens, UniProt P28335)
T1 sequence (P28335 whole entry): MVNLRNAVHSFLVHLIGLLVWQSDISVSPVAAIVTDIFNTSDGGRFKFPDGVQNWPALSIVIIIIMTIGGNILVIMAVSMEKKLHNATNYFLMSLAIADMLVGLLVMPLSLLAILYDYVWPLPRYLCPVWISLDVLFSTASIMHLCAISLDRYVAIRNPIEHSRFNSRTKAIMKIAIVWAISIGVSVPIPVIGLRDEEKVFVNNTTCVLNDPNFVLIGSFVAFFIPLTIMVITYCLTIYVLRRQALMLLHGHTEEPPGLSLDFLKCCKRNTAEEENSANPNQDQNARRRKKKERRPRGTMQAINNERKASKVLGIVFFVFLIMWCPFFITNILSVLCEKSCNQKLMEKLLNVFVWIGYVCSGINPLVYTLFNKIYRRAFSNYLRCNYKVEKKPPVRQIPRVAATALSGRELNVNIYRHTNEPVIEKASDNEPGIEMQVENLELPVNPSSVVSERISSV

[5] = target: 5-hydroxytryptamine receptor 1B (Homo sapiens, UniProt P28222)
Histamine H1 receptor = Histamine H1 receptor (Homo sapiens, UniProt P35367)
D(3) dopamine receptor = D(3) dopamine receptor (Homo sapiens, UniProt P35462)
[6] = target: 5-hydroxytryptamine receptor 6 (Homo sapiens, UniProt P50406)
[7] = target: Sodium-dependent dopamine transporter (Homo sapiens, UniProt Q01959)
[8] = target: T2, Adrenergic receptor alpha-1 (Homo sapiens, UniProt P35348+P25100+P35368); assay type: protein assay
T2 sequence (P35348 whole entry): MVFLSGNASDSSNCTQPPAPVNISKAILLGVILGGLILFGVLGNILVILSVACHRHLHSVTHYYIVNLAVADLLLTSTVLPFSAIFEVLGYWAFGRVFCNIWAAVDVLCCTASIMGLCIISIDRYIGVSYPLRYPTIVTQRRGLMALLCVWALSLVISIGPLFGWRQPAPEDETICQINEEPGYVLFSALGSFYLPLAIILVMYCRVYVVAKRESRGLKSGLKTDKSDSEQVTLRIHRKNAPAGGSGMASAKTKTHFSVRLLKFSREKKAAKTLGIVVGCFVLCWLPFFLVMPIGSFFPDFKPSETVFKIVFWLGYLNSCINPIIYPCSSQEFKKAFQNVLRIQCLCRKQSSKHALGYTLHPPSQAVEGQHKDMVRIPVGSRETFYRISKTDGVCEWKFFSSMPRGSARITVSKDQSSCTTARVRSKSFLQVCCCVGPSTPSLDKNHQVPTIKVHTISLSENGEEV
T2 sequence (P25100 whole entry): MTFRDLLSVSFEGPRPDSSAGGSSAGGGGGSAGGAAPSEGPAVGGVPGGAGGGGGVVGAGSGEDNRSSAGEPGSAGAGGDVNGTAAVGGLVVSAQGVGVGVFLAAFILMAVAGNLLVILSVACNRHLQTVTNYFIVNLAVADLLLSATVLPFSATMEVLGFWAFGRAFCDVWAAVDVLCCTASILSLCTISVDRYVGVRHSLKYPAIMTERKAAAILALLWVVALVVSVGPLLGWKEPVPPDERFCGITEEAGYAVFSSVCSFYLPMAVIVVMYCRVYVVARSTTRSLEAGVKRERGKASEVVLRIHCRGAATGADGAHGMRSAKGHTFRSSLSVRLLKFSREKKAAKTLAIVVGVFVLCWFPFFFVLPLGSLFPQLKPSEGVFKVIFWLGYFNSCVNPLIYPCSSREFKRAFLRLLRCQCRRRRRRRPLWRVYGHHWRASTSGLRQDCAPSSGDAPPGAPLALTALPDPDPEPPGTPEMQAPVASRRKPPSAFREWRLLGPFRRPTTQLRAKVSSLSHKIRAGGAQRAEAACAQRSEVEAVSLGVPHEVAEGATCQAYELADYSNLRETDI
T2 sequence (P35368 whole entry): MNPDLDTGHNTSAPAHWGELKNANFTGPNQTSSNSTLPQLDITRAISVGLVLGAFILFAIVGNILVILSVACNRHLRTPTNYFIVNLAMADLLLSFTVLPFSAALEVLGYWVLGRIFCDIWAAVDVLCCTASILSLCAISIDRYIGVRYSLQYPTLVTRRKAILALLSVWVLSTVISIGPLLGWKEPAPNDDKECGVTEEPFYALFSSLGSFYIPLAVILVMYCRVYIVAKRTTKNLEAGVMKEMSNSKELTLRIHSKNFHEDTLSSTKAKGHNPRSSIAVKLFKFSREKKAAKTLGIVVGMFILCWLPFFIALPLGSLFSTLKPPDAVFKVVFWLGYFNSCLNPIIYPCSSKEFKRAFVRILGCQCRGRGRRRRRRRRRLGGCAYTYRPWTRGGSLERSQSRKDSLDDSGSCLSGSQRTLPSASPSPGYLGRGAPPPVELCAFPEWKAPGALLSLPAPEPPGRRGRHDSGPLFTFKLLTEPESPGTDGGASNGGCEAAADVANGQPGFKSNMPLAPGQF

D(1B) dopamine receptor = D(1B) dopamine receptor (Homo sapiens, UniProt P21918)
[9] = target: 5-hydroxytryptamine receptor 7 (Homo sapiens, UniProt P34969)
Cannabinoid receptor 1 = Cannabinoid receptor 1 (Homo sapiens, UniProt P21554)
Chain of Cannabinoid receptor 1 (P21554 whole entry): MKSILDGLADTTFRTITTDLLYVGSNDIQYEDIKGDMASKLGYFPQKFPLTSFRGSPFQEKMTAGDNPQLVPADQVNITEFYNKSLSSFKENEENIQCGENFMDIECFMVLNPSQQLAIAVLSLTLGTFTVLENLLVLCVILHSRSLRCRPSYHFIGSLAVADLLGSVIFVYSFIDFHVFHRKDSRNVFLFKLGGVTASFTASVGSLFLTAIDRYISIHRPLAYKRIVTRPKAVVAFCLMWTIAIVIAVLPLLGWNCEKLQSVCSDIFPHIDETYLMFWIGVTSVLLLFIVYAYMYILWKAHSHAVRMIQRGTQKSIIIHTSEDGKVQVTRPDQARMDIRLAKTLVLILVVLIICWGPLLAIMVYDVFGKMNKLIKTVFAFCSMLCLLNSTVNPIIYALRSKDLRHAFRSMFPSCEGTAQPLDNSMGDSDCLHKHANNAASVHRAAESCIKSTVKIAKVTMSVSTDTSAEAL

Chain of 5-hydroxytryptamine receptor 7 (P34969 whole entry): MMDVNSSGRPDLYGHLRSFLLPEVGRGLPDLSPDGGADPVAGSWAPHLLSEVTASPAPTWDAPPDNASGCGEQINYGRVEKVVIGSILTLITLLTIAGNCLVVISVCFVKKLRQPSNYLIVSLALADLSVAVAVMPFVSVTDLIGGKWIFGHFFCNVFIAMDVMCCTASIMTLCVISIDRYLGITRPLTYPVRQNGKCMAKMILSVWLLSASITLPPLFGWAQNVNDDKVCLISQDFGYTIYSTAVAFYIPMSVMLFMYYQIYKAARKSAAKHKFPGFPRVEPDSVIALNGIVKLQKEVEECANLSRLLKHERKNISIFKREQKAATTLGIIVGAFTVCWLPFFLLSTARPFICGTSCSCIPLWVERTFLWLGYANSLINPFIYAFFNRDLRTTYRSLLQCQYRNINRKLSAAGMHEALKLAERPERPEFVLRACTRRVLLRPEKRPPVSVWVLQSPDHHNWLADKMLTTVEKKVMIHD
Chain of Vasopressin V1a receptor (P37288 whole entry): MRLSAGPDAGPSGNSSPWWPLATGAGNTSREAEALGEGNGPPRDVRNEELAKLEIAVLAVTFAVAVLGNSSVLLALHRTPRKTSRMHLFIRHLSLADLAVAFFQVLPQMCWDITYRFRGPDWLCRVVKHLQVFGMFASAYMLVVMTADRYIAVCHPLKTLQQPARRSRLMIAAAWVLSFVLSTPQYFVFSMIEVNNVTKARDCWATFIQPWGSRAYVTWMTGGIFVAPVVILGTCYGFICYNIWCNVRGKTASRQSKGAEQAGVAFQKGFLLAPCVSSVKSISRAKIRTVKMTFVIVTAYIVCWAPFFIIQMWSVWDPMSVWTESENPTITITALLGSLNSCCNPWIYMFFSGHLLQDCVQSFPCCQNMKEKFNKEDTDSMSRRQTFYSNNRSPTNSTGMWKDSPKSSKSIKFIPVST
Chain of D(1A) dopamine receptor (P21728 whole entry): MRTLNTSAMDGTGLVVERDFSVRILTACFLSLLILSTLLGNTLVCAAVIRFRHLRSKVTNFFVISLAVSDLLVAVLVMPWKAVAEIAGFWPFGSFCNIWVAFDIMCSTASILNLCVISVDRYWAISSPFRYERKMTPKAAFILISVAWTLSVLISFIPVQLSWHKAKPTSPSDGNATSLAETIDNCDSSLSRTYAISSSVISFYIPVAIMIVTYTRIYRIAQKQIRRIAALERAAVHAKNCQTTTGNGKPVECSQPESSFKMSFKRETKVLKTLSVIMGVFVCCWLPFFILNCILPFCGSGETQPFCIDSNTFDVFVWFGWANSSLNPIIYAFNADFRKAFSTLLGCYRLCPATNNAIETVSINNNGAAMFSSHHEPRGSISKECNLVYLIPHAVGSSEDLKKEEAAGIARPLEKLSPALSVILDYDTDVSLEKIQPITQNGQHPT
Chain of D(3) dopamine receptor (P35462 whole entry): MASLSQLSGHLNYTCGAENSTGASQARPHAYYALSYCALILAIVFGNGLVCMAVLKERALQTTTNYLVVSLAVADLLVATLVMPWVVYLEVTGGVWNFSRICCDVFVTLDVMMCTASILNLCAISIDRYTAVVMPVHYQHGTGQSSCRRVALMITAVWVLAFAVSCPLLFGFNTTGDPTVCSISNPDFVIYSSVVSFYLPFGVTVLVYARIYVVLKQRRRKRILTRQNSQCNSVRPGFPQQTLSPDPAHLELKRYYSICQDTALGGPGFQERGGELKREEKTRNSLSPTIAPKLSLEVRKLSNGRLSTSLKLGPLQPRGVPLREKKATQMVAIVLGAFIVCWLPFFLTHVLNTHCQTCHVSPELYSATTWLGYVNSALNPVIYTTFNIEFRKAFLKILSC
Chain of 5-hydroxytryptamine receptor 1B (P28222 whole entry): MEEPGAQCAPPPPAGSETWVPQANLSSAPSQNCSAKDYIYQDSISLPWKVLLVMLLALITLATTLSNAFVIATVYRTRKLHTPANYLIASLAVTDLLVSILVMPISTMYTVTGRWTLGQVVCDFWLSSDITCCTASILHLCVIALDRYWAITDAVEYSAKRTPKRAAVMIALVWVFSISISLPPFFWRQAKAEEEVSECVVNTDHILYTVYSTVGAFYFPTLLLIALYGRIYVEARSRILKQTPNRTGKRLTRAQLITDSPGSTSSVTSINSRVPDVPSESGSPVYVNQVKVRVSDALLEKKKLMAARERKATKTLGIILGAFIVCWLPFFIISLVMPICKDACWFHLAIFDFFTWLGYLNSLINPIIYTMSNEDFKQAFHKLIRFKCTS
Chain of Histamine H2 receptor (P25021 whole entry): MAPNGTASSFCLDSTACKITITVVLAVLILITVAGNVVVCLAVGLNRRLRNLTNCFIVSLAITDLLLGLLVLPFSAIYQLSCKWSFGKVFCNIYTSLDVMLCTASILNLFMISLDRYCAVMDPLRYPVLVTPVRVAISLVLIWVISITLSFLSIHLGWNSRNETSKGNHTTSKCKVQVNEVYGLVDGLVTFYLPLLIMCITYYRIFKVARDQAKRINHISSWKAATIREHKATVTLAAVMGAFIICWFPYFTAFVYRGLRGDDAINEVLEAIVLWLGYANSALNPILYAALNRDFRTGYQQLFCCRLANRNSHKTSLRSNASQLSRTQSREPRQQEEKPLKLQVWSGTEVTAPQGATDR
Chain of 5-hydroxytryptamine receptor 2A (P28223 whole entry): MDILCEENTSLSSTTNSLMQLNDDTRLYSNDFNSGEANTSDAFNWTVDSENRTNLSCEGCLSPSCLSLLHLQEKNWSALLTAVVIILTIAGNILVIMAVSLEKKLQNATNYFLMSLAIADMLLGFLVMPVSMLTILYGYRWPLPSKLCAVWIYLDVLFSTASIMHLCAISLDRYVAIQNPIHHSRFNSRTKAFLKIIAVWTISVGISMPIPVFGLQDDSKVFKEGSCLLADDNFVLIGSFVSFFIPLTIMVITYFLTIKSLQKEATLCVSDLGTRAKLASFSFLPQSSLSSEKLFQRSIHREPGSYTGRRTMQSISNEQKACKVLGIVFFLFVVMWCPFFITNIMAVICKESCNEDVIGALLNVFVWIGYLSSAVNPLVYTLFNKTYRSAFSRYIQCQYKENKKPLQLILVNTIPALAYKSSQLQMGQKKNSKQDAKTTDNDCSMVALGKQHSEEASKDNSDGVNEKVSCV
Chain of Histamine H1 receptor (P35367 whole entry): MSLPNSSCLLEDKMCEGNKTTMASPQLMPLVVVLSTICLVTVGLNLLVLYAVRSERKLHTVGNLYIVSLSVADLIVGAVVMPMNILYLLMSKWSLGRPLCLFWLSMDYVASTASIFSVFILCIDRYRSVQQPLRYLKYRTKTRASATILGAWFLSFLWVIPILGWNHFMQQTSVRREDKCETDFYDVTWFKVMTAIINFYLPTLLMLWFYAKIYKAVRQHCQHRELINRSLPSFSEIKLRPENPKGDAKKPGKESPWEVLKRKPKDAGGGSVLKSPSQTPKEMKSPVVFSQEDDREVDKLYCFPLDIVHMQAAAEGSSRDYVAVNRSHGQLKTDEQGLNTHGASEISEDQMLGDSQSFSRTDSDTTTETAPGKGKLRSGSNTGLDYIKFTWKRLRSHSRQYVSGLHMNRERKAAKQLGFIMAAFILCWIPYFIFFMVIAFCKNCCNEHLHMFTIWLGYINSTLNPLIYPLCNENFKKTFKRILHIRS
Chain of Sodium-dependent noradrenaline transporter (P23975 whole entry): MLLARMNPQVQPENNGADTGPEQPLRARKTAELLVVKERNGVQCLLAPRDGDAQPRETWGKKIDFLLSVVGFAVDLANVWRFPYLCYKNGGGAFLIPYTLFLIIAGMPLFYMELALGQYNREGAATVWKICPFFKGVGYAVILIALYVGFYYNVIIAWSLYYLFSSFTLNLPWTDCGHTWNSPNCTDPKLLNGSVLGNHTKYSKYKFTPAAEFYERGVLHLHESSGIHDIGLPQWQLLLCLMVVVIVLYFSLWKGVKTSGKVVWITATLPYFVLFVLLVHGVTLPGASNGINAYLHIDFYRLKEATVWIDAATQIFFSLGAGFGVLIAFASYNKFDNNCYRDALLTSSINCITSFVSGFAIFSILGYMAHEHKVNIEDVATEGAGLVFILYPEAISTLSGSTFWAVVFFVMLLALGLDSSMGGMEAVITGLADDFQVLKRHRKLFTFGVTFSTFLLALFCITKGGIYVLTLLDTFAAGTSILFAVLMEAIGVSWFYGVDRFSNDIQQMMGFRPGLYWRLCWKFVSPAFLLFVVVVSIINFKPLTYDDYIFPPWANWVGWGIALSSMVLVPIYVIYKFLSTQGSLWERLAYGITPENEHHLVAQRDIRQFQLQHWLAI

Question: For `N#Cc1ccc(CCOC(=O)NC2CCN(CCCC(c3ccc(F)cc3)c3ccc(F)cc3)CC2)cc1`, which IC50 (Histamine H2 receptor) is on record?
Answer: 368 nM

Question: What about the IC50 [1] of the same compound?
Answer: 284 nM

Question: What about the IC50 [2] of the same compound?
Answer: 683 nM

Question: And the IC50 (D(1A) dopamine receptor)?
Answer: 376 nM

Question: What about the IC50 (Vasopressin V1a receptor) of the same compound?
Answer: 3650 nM

Question: What about the IC50 [3] of the same compound?
Answer: 1140 nM

Question: What about the IC50 [4] of the same compound?
Answer: 2760 nM

Question: What about the IC50 [5] of the same compound?
Answer: 3580 nM

Question: What about the IC50 (Histamine H1 receptor) of the same compound?
Answer: 454 nM

Question: And the IC50 (D(3) dopamine receptor)?
Answer: 538 nM

Question: What about the IC50 [6] of the same compound?
Answer: 427 nM

Question: What about the IC50 [7] of the same compound?
Answer: 781 nM

Question: What about the IC50 [8] of the same compound?
Answer: 417 nM

Question: What about the IC50 (D(1B) dopamine receptor) of the same compound?
Answer: 513 nM

Question: What about the IC50 [9] of the same compound?
Answer: 998 nM

Question: And the IC50 (Cannabinoid receptor 1)?
Answer: 6090 nM
